Measurements as given in patent US10960018B2, “Methods and compounds for stimulating read-through of premature termination codons” (The UAB Research Foundation, priority 2016, dated 2021).

Tests used:
[1] = test system: mouse embryonic fibroblasts (MEF); settings: 48 h
FRT W1282X cells = assay: Transepithelial chloride conductance assay in FRT W1282X cells; assay type: cell-based, Rat; settings: 48 hours; escin 10 μM, VX-809 3 μM, GP-5 10 μM, C1+C2 10 μM
Procedure: Stably transfected FRT cells as described herein cells were seeded onto Costar 24-well […] permeable supports at a density of ˜2×10^6 cells/filter and maintained at 37° C. with 5% CO2. Transepithelial resistance was assessed using an epithelial voltmeter to ensure the formation of tight monolayers, as defined by resistance >6 kcm^2. During initial evaluation of agents, cells were treated with compounds (10 μM), vehicle control (0.3% DMSO), or positive control (250 μg/mL G418) for 48 hours before transepithelial conductance (Gt) was assessed; subsequent studies used other concentrations of compounds. Measurements were taken at baseline, after the addition of 20 μM forskolin (FSK, a cAMP agonist that stimulates CFTR activity) and 10 μM CFTRInh-172 (a CFTR-specific inhibitor).
Individual assays were performed as described herein.
As previously reported in the literature, the combination of CFTR correctors (such as VX-809) and CFTR potentiators (such as VX-770) act synergistically to improve CFTR function. […] Compounds alone or in the indicated combination were pre-incubated with FRT W1282X cells for 48 hours. During the assay the baseline conductance (Gt) was initially determined prior to the acute addition of forskolin (20 μM) and VX-770 (10 μM) to stimulate CFTR activity; the CFTR inhibitor, CFTRInh-172 (10 μM), was added to inhibit CFTR activity at the end of the assay. Enhancement of PTC read-through by the compounds of the present disclosure was determined by an increase in CFTR conductance. CFTR conductance also indicated the CFTR was functional as a result of the read-through of the PTC.
Compounds alone or in the indicated combination were pre-incubated with FRT G542X cells for 48 hours. […] Enhancement of PTC read-through by the compounds of the present disclosure was determined by an increase in CFTR conductance. CFTR conductance also indicated the CFTR was functional as a result of the read-through of the PTC.
It has been reported that aminoglycosides interfere with the action read-through stimulating compound. […] CFTR conductance also indicated the CFTR was functional as a result of the read-through of the PTC.
Stimulation of CFTR activity was determined by an increase in CFTR conductance. […] During the assay the baseline conductance (Gt) was initially determined prior to the acute addition of forskolin (20 μM) and GP-5 (10 μM) to stimulate CFTR activity; the CFTR inhibitor, […] (10 μM), was added to inhibit CFTR activity at the end of the assay.
The effect of the read-through stimulating compounds of the present disclosure in combination with the CFTR corrector VX-809 was further examined in FRT cells with the G542X, Y122X and W1282X mutations. […] CFTR conductance also indicated the CFTR was functional as a result of the read-through of the PTC.

## COc1cccc2c1C(=O)c1c(O)c3c(c(O)c1C2=O)C[C@@](O)(C(=O)CO)C[C@@H]3O[C@H]1C[C@H](N)[C@H](O)[C@H](C)O1 [Doxorubicin, DOXORUBICIN]
[1]
  decrease of total protein concentrations: about 40%

## Cc1ccc(NC(=O)C2(c3ccc4c(c3)OC(F)(F)O4)CC2)nc1-c1cccc(C(=O)O)c1 [VX-809]
FRT W1282X cells
  CFTR stimulation (conductance) in the presence of forskolin and GP-5: varying stimulatory effects
